The values that follow come from patent publication US20070004660A1, “Synergistic Modulation of Flt3 Kinase Using Alkylquinolines and Alkylquinazolines” (priority 2005, published 2007).

The structures appear in SMILES notation.

The target of the test is T1, wild-type FLT3 receptor (Homo sapiens, UniProt P36888).
T1 construct: host or cells: Baf3 (murine B cell lymphoma line), stably transfected
T1 sequence (P36888 27-993): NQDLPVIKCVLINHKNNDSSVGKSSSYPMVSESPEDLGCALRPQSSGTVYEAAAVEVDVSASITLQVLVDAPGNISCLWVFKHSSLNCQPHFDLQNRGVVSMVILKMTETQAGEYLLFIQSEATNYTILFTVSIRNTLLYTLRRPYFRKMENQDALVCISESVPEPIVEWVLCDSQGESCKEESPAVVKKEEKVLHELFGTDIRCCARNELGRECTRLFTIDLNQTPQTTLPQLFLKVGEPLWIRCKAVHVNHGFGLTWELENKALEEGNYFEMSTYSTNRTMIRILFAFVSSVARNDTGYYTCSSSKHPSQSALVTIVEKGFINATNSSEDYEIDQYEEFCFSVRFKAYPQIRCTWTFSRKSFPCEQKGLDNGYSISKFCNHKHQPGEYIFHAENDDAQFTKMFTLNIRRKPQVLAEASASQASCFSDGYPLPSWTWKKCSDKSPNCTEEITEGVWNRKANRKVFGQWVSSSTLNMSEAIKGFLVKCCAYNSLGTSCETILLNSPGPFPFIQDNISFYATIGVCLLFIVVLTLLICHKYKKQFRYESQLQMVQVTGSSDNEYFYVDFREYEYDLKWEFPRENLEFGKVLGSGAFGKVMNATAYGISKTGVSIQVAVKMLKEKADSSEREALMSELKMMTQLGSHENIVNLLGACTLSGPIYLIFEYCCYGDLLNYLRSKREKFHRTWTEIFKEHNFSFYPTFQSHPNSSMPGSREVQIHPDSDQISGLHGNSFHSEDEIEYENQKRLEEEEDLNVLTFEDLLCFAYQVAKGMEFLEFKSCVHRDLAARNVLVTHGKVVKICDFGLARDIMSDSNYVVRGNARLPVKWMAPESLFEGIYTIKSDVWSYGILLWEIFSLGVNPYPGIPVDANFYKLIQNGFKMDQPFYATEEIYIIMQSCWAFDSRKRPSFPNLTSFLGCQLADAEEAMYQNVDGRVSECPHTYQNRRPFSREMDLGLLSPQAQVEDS
Briefly: Cell-based FLT3 receptor ELISA (FLT ligand-induced phosphorylation in Baf3 FLT3 cells). The settings on record: 100 ng/mL Flt ligand, uncertainty ±20%. As for the experimental part: Specific cellular inhibition of FLT ligand-induced wild-type FLT3 phosphorylation was measured in the following manner: Baf3 FLT3 cells overexpressing the FLT3 receptor were obtained from Dr. Michael Heinrich (Oregon Health and Sciences University). The Baf3 FLT3 cell lines were created by stable transfection of parental Baf3 cells (a murine B cell lymphoma line dependent on the cytokine IL-3 for growth) with wild-type FLT3. Cells were selected for their ability to grow in the absence of IL-3 and in the presence of FLT3 ligand. Baf3 cells were maintained in RPMI 1640 with 10% FBS, penn/strep and 10 ng/ml FLT ligand at 37° C., 5% CO2. To measure direct inhibition of the wild-type FLT3 receptor activity and phosphorylation a sandwich ELISA method was developed similar to those developed for other RTKs (see Sadick, M D, Sliwkowski, M X, Nuijens, A, Bald, L, Chiang, N, Lofgren, J A, Wong W L T. Analysis of Heregulin-Induced ErbB2 Phosphorylation with a High-Throughput Kinase Receptor Activation Enzyme-Linked Immunsorbent Assay, Analytical Biochemistry. 1996; 235:207-214 and Baumann C A, Zeng L, Donatelli R R, Maroney A C. Development of a quantitative, high-throughput cell-based enzyme-linked immunosorbent assay for detection of colony-stimulating factor-1 receptor tyrosine kinase inhibitors. J Biochem Biophys Methods. 2004; 60:69-79.). 200 μL of Baf3FLT3 cells (1×10^6 /mL) were plated in 96 well dishes in RPMI 1640 with 0.5% serum and 0.01 ng/mL IL-3 for 16 hours prior to 1 hour compound or DMSO vehicle incubation. Cells were treated with 100 ng/mL Flt ligand (R&D Systems Cat# 308-FK) for 10 min. at 37° C. Cells were pelleted, washed and lysed in 100 ul lysis buffer (50 mM Hepes, 150 mM NaCl, 10% Glycerol, 1% Triton-X-100, 10 mM NaF, 1 mM EDTA, 1.5 mM MgCl2, 10 mM NaPyrophosphate) supplemented with phosphatase (Sigma Cat# P2850) and protease inhibitors (Sigma Cat #P8340). Lysates were cleared by centrifugation at 1000×g for 5 minutes at 4° C. Cell lysates were transferred to white wall 96 well microtiter (Costar #9018) plates coated with 50 ng/well anti-FLT3 antibody (Santa Cruz Cat# sc-480) and blocked with SeaBlock reagent (Pierce Cat#37527). Lysates were incubated at 4° C. for 2 hours. Plates were washed 3× with 200 ul/well PBS/0.1% Triton-X-100. Plates were then incubated with 1:8000 dilution of HRP-conjugated anti-phosphotyrosine antibody (Clone 4G10, Upstate Biotechnology Cat#16-105) for 1 hour at room temperature. Plates were washed 3× with 200 ul/well PBS/0.1% Triton-X-100. Signal detection with Super Signal Pico reagent (Pierce Cat#37070) was done according to manufacturer's instruction with a Berthold microplate luminometer. All data points are an average of triplicate samples. […] Inhibition and IC50 data analysis was done with GraphPad Prism using a non-linear regression fit with a multiparamater, sigmoidal dose-response (variable slope) equation.
In general, IC50 refers to the concentration needed to halve the response being measured. Read a high IC50 as weaker potency in that assay. Regarding `O=C1CCCN1CCCOc1ccc2c(C3CCN(C(=O)Nc4cnc(N5CCCC5)nc4)CC3)ncnc2c1` [Example 90, 4-{7-[3-(2-Oxo-pyrrolidin-1-yl)-propoxy]-quinazolin-4-yl}-piperidine-1-carboxylic acid (2-pyrrolidin-1-yl-pyrimidin-5-yl)-amide], the midpoint of inhibition, the IC50, lay at 279 nM. Then `O=C1CCCN1CCOc1ccc2c(C3CCN(C(=O)Nc4cnc(N5CCCC5)nc4)CC3)ncnc2c1` [Example 84, 4-{7-[2-(2-Oxo-pyrrolidin-1-yl)-ethoxy]-quinazolin-4-yl}-piperidine-1-carboxylic acid (2-pyrrolidin-1-yl-pyrimidin-5-yl)-amide], with 80 nM. For `CC(C)Oc1ccc(NC(=O)N2CCC(c3ncnc4cc(NCCCN5CCN(C)CC5)ccc34)CC2)cc1` [Example 102, 4-{7-[3-(4-Methyl-piperazin-1-yl)-propylamino]-quinazolin-4-yl}-piperidine-1-carboxylic acid (4-isopropoxy-phenyl)-amide] the value was 5 nM. For `CN1CCC(COc2ccc3c(C4CCN(C(=O)Nc5ccc(N6CCOCC6)nc5)CC4)ncnc3c2)CC1` [Example 108, 4-[7-(1-Methyl-piperidin-4-ylmethoxy)-quinazolin-4-yl]-piperidine-1-carboxylic acid (6-morpholin-4-yl-pyridin-3-yl)-amide] the value was 53 nM; for `CC(C)Oc1ccc(NC(=O)N2CCC(c3ncnc4ccc(C#CCN5CCCCC5)cc34)CC2)cc1` [Example 14, 4-[6-(3-Piperidin-1-yl-prop-1-ynyl)-quinazolin-4-yl]-piperidine-1-carboxylic acid (4-isopropoxy-phenyl)-amide], 186 nM. The molecule `COc1cc2ncnc(C3CCN(C(=O)Nc4ccc(N5CCCC5=O)cc4)CC3)c2cc1OC` [Example 57, 4-(6,7-Dimethoxy-quinazolin-4-yl)-piperidine-1-carboxylic acid [4-(2-oxo-pyrrolidin-1-yl)-phenyl]-amide] showed a 50% inhibitory concentration (IC50) of 381 nM. For `CS(=O)(=O)NCCCOc1ccc2c(C3CCN(C(=O)Nc4ccc(OC5CCCC5)nc4)CC3)ncnc2c1` [Example 88, 4-[7-(3-Methanesulfonylamino-propoxy)-quinazolin-4-yl]-piperidine-1-carboxylic acid (6-cyclopentyloxy-pyridin-3-yl)-amide] the value was 30 nM; for `CC(C)Oc1ccc(NC(=O)N2CCC(c3ncnc4ccc(OCCCN5CCCC5=O)cc34)CC2)cc1` [Example 101, 4-{6-[3-(2-Oxo-pyrrolidin-1-yl)-propoxy]-quinazolin-4-yl}-piperidine-1-carboxylic acid (4-isopropoxy-phenyl)-amide], 42 nM; for `CN1CCC(COc2ccc3c(C4CCN(C(=O)Nc5ccc(N6CCCC6)nc5)CC4)ncnc3c2)CC1` [Example 99, 4-[7-(1-Methyl-piperidin-4-ylmethoxy)-quinazolin-4-yl]-piperidine-1-carboxylic acid (6-pyrrolidin-1-yl-pyridin-3-yl)-amide], 14 nM. Turning to `CC(=O)N1CCN(CCCOc2ccc3c(C4CCN(C(=O)Nc5ccc(N6CCOCC6)cc5)CC4)ncnc3c2)CC1` [Example 117, 4-{7-[3-(4-Acetyl-piperazin-1-yl)-propoxy]-quinazolin-4-yl}-piperidine-1-carboxylic acid (4-morpholin-4-yl-phenyl)-amide], it took 88 nM to reach half-maximal inhibition (IC50). For `O=C(Nc1ccc(N2CCOCC2)cc1)N1CCC(c2ncnc3cc(OCCCN4CCCC4)ccc23)CC1` [Example 124, 4-[7-(3-Pyrrolidin-1-yl-propoxy)-quinazolin-4-yl]-piperidine-1-carboxylic acid (4-morpholin-4-yl-phenyl)-amide] the value was 63 nM. For `CN1CCN(CCCOc2ccc3c(C4CCN(C(=O)Nc5ccc(N6CCOCC6)c(F)c5)CC4)ncnc3c2)CC1` [Example 81, 4-{7-[3-(4-Methyl-piperazin-1-yl)-propoxy]-quinazolin-4-yl}-piperidine-1-carboxylic acid (3-fluoro-4-morpholin-4-yl-phenyl)-amide] the value was 28 nM; for `O=C1CCCN1CCOc1ccc2c(C3CCN(C(=O)Nc4ccc(N5CCOCC5)nc4)CC3)ncnc2c1` [Example 83, 4-{7-[2-(2-Oxo-pyrrolidin-1-yl)-ethoxy]-quinazolin-4-yl}-piperidine-1-carboxylic acid (6-morpholin-4-yl-pyridin-3-yl)-amide], 37 nM. Consider `O=C(Nc1ccc(N2CCOCC2)cc1)N1CCC(c2ncnc3cc(OCCCN4CCCCC4)ccc23)CC1` [Example 75], for which the IC50 was 84 nM. Then `COc1cc2ncnc(C3CCN(CC(=O)Nc4ccc(OC(C)C)cc4)CC3)c2cc1OC` [Example 10, 2-[4-(6,7-Dimethoxy-quinazolin-4-yl)-piperidin-1-yl]-N-(4-isopropoxy-phenyl)-acetamide], with 31 nM. For `COc1cc2ncnc(C3CCN(C(=O)Nc4ccc(Oc5ccccc5)cc4)CC3)c2cc1OC` [Example 47, 4-(6,7-Dimethoxy-quinazolin-4-yl)-piperidine-1-carboxylic acid (4-phenoxy-phenyl)-amide], half-maximal inhibition (IC50) was put at 8 nM. In turn, `CC(C)Oc1ccc(NC(=O)N2CCC(c3ncnc4ccc(C#CCO)cc34)CC2)cc1` [Example 12, 4-[6-(3-Hydroxy-prop-1-ynyl)-quinazolin-4-yl]-piperidine-1-carboxylic acid (4-isopropoxy-phenyl)-amide] registered an IC50 of 36 nM. For `CN1CCN(CCCOc2ccc3c(C4CCN(C(=O)Nc5ccc(N6CCOCC6)nc5)CC4)ncnc3c2)CC1` [Example 80, 4-{7-[3-(4-Methyl-piperazin-1-yl)-propoxy]-quinazolin-4-yl}-piperidine-1-carboxylic acid (6-morpholin-4-yl-pyridin-3-yl)-amide] the value was 19 nM. For `CS(=O)(=O)N1CCN(CCCOc2ccc3c(C4CCN(C(=O)Nc5ccc(N6CCOCC6)cc5)CC4)ncnc3c2)CC1` [Example 118, 4-{7-[3-(4-Methanesulfonyl-piperazin-1-yl)-propoxy]-quinazolin-4-yl}-piperidine-1-carboxylic acid (4-morpholin-4-yl-phenyl)-amide] the value was 10 nM; for `CS(=O)(=O)NCCCOc1ccc2c(C3CCN(C(=O)Nc4ccc(N5CCCC5)nc4)CC3)ncnc2c1` [Example 86, 4-[7-(3-Methanesulfonylamino-propoxy)-quinazolin-4-yl]-piperidine-1-carboxylic acid (6-pyrrolidin-1-yl-pyridin-3-yl)-amide], 9 nM.
